Data taken from patent US20160303095A1, “METHODS OF TREATING HEPATITIS B VIRUS” (Gilead Sciences, Inc., priority 2015, published 2016).

These compounds were tested against T1, KDM2B (Homo sapiens, UniProt Q8NHM5) (assay: Biochemical KDM inhibition assay (LANCE), KDM2B). Conditions: read-out: Biochemical IC50 KDM 2B.
T1 construct: host or cells: Sf9 cells
T1 sequence (Q8NHM5 1-1336): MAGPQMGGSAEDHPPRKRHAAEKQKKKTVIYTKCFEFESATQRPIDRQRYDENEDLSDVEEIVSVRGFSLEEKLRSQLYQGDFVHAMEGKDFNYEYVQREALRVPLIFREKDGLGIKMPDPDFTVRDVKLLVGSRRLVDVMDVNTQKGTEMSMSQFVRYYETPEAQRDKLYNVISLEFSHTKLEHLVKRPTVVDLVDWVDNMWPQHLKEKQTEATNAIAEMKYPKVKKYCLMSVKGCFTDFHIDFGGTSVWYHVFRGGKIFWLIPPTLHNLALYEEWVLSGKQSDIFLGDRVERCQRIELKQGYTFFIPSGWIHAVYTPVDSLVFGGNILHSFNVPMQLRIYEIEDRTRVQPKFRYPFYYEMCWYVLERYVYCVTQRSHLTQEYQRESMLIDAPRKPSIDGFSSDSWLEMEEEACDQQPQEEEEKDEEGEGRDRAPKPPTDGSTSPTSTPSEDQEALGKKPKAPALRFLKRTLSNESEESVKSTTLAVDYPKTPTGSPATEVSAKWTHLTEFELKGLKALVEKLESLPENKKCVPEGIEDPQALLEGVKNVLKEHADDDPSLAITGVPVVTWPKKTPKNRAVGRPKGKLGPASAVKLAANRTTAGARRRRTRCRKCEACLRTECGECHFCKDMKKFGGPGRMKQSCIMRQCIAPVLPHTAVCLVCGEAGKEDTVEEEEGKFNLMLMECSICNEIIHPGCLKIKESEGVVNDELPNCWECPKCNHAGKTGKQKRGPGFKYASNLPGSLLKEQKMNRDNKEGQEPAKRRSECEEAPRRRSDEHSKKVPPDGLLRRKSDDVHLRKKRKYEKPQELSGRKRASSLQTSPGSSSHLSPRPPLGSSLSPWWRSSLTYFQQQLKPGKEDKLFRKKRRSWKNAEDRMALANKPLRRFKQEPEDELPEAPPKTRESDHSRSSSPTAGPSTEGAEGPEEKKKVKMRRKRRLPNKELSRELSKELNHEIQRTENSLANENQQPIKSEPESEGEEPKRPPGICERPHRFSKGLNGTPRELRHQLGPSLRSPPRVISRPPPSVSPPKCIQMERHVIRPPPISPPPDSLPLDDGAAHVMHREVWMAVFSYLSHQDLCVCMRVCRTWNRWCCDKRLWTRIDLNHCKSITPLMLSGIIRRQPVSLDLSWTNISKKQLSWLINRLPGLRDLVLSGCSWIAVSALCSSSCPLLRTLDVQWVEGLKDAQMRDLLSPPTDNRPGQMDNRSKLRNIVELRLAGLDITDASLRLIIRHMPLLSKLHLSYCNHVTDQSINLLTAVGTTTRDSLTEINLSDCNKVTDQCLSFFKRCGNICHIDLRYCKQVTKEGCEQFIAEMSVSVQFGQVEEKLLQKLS
Description: Representative compounds were characterized for their inhibition of KDM5 using biotinylated histone substrates. Inhibition was measured in vitro (CEREP Poitier, Le Bois l'Evêque, France) following experimental conditions described in Table 2. Briefly, the test compound, reference compound or water (control) was mixed with about 2-20 ng of recombinant, Human enzymes expressed in Sf9 cells in a buffer containing 45 mM Hepes/Tris (pH 7), 5 μM FAS, 100 μM ascorbic acid, 10 μM 2-oxoglutarate, 0.01% Tween 20 and 0.01% BSA. Thereafter, the reaction was initiated by adding the biotin-labeled substrate, and the mixture was incubated for 10-30 min at room temperature. For basal control measurements, the enzyme was omitted from the reaction mixture. Following incubation the reaction was stopped by adding 1 mM EDTA. After 5 min, the anti-methyl histone antibody labeled with europium chelate and the Ulight streptavidine (Perkin Elmer Waltham, Mass.) were added. After 60 min more, the fluorescence transfer was measured at λex=320 nm and λem=620 and λem=665 nm using a microplate reader (Envision, Perkin Elmer) (LANCE). The enzyme activity was determined by dividing the signal measured at λem=665 nm by that measured at 620 nm (ratio).

Point of comparison: `CCN(CC)CCCCNCc1cc(C(=O)O)ccn1` [Example 18], IC50 12000 nM. Against it:
- Nc1c(C(=O)O)ccnc1C(=O)O [Example 7, reference compound] — 75-fold lower, 160 nM
- CCN(CCN(C)C)C(=O)CNCc1cc(C(=O)O)ccn1 [Example 9] — 7.5-fold lower, 1600 nM
- Cc1cc(Cl)ccc1COc1ccnn1-c1cc(C(=O)O)ccn1 [Example 11] — 18-fold lower, 660 nM
- O=C(O)c1ccncc1Nc1nn(CCN2CCC(F)(F)CC2)c2ccc(F)cc12 [Example 13] — 5-fold lower, 2400 nM
